From US20240261296A1, “THERAPEUTIC MODALITIES FOR INHIBITING PANCREATIC BETA CELL IMPAIRMENT AND TREATING DIABETES” (Hadasit Medical Research Serices & Development Ltd., priority 2021, published 2024) come the findings set out here.

Holding throughout (assay type): in vivo
In one data set the test system is C57Bl/6 mice. The data set is described as follows: acute toxicity, IP and oral. As to conditions: for physical or behavioral differences: IP 3 mg/kg or gavage total 9 mg/kg; for differences between experimental groups and saline/DMSO control mice (summary): IP 3 mg/kg/mouse or gavage 9 mg/kg/mouse. The method, then: The safety of compounds C5 and C13 was examined in various in vivo settings, and compared to that of L-798106. The compounds were administered by oral gavage or intraperitoneal (IP) injection to C57Bl/6 mice, and acute toxicity, liver and kidney functions and blood glucose and insulin levels were evaluated. Additional safety experiments and measurements of various blood parameters in diabetic mice are further presented in Example 12 below.
Acute toxicity—IP and oral. For acute toxicity studies, a single IP dose of 3 mg/kg, or three oral doses (total of 9 mg/Kg) were administered. No mortality was observed by the end of the monitoring period (two days for IP administration or four days for oral administration), and all animals survived both modes of administration. No physical or behavioral differences were observed between the different groups and between the two modes of drug administration. Pictures of the sites of IP injection were taken when animals were sacrificed and no damage was observed.
Male mice (n=8 per group) were assigned to the following test groups. A dosage of 3 mg/kg/mouse was administered daily for 3 consecutive days in 200 μl of:
Group A: saline and DMSO carrier (referred to throughout the drawings and examples describing the in vivo experiment as “Control-Saline”, “Vehicle”, “Saline” or “Control”), at the equivalent concentration administered the other test groups (2.5%). Group B: Compound 1b (C5) at 3 mg/Kg: (total of 9 mg/Kg). Group C: Compound 1a (C13) at 3 mg/Kg: (total of 9 mg/Kg). Group D: L-798106 at 3 mg/Kg: (total of 9 mg/Kg).

Data set [1] can be described thus: blood insulin levels in C57Bl/6 mice (ELISA). On the procedure:
B. For measurements of blood insulin levels, insulin was measured in blood obtained from the vein tail of C57Bl/6 mice (n=8/group) 24 h (t24) after the third gavage with vehicle (Control-Saline); 3 mg/kg/day Compound C5; Compound C13 or the EP3 antagonist L-798106 (total 9 mg/kg) using ELISA mouse insulin kit (Mercodia). Five samples randomly chosen from each group were measured.
B. Blood insulin levels: Insulin was measured in sera obtained from mice injected with either Saline/DMSO (control), Compound 5 (C5); Compound C13 (C13) or L-798106, using ELISA mouse insulin kit according to the manufacturer's instructions (Mercodia). Five samples randomly chosen from each group were measured. […] Similarly, to normal blood glucose, the mice keep their blood insulin concentrations within the normal range.
(In an ELISA, binding on a coated surface is turned into a signal by an enzyme label.)

Data set [2] can be described thus: liver function parameters in sera of C57Bl/6 mice. On the procedure:
Blood was collected by cardiac puncture, and 50 μl were collected in EDTA containing tubes for cell blood count (CBC). Further, 200-300 μl of blood was centrifuged and serum was collected for biochemical analysis. C. Effects of orally administered compounds on liver function parameters: The blood levels of albumin, the liver aspartate transaminase (AST) and alanine transaminase (ALT) were measured in the sera obtained from mice 24 h after the third gavage with saline/DMSO (Control Saline); 3 mg/kg/day Compound C5; Compound C13 or the EP3 antagonist L-798106. Results are presented in FIG. 11A for Albumin, FIG. 11B for AST, and FIG. 11C for ALT. […] All p-values >0.05. C. Liver function parameters: Blood levels of albumin (FIG. 14A), liver transaminases: aspartate transaminase (AST, FIG. 14B) and alanine transaminase (ALT, FIG. 14C), as well as bilirubin, were measured in sera obtained from mice 24 h after injection of either Saline/DMSO (Control Saline); C5; C13 or L-798106. […] Typically, this biomarker levels rise with liver injury and help monitor function under drugs treatment. Here a decrease in the levels of ALT in the serum of L-798106- and C13-treated mice, is not considered to indicate liver damage. Bilirubin<1 μM was measured in all test groups.

A short description of data set [3]: lipid parameters in sera of db/db mice. As to conditions: 8 weeks of treatment; for blood triglyceride levels: vs vehicle. The method, then: At the end of the 8 week-long period of treatment as described in Example 9, mice were sacrificed and blood samples were collected, and analyzed for different parameters as detailed below.
Lipid parameters in sera. Mice lipid profiles were assessed by measuring triglycerides and total cholesterol levels in the sera of the treated mice. The results for the triglycerides and cholesterol levels in db/db mice are presented in FIGS. 24A-24B respectively, in which, each treatment is graphically represented as described in Example 9, for each group n=5, data is presented ±SEM. Statistical analysis between each treated-group compared to vehicle was performed p-value for C5=0.06, for C13=0.02 and p >0.05 for the rest of the tests.

Where [4] appears, read: oral 3 mg/kg/day (total 9 mg/kg), 24 h after third gavage.
Where [5] appears, read: oral 3 mg/kg/day, 24 h after third gavage.

`CC[C@H](C)c1ccc(S(=O)(=O)Nc2ccccc2C(=O)N2C[C@@H](C)O[C@@H](C)C2)cc1` [Compound C5, 4-((S)-sec-butyl)-N-(2-((2S,6R)-2,6-dimethylmorpholine-4-carbonyl)phenyl)benzenesulfonamide]: in the data set with C57Bl/6 mice, the “physical or behavioral differences” value was “No physical or clinical behavioral differences”; the “differences between experimental groups and saline/DMSO control mice (summary)” value is reported as “no significant differences were observed”. Besides, the blood insulin levels entry in data set [1] (IP single dose 3 mg/kg) was “no statistically significant differences”. In addition, the blood insulin levels entry in data set [1] (setting [4]) is “no statistically significant differences”. Moreover, in data set [2] (IP, 24 h after injection), the “alanine transaminase (ALT)” value is listed as “no statistically significant differences”, the albumin result is listed as “no statistically significant differences” and the “aspartate transaminase (AST)” value was “no statistically significant differences”. For the same compound, in data set [2] (setting [5]), the “alanine transaminase (ALT)” value is recorded as “no statistically significant differences”, the albumin entry is reported as “no statistically significant differences” and the “aspartate transaminase (AST)” value is “no statistically significant differences”. In addition, in data set [3], the total cholesterol levels result was “No effect on total cholesterol levels” and the blood triglyceride levels entry is recorded as “significant reduction”.
As to `CC[C@@H]1CC[C@H](C)N1C(=O)c1cccc(NS(=O)(=O)c2ccc(C)c(F)c2)c1` [Compound C13, N-(3-((2R,5S)-2-ethyl-5-methylpyrrolidine-1-carbonyl)phenyl)-3-fluoro-4-methylbenzenesulfonamide], in the data set on C57Bl/6 mice, the “physical or behavioral differences” value is on record as “No physical or clinical behavioral differences”; the “differences between experimental groups and saline/DMSO control mice (summary)” value was “no significant differences were observed”. Further, the blood insulin levels result in data set [1] (IP single dose 3 mg/kg) is reported as “no statistically significant differences”. Moreover, in data set [1] (setting [4]), the blood insulin levels result is on record as “no statistically significant differences”. Also, in data set [2] (IP, 24 h after injection), the “alanine transaminase (ALT)” value was “lower concentrations of alanine transaminase”, the albumin result was “no statistically significant differences” and the “aspartate transaminase (AST)” value is given as “no statistically significant differences”. Moreover, in data set [2] (setting [5]), the “alanine transaminase (ALT)” value was “no statistically significant differences”, the albumin result is recorded as “no statistically significant differences” and the “aspartate transaminase (AST)” value is “no statistically significant differences”. For the same compound, in data set [3], the total cholesterol levels entry is listed as “No effect on total cholesterol levels” and the blood triglyceride levels result is “significant reduction”.
Regarding `COc1ccc(Br)cc1S(=O)(=O)NC(=O)/C=C/c1ccccc1Cc1ccc2ccccc2c1` [Compound L-798106, (2E)-N-[(5-bromo-2-methoxyphenyl)sulfonyl]-3-[2-(2-naphthalenylmethyl)phenyl]-2-propenamide, reference compound], in the data set with C57Bl/6 mice, the “physical or behavioral differences” value is “No physical or clinical behavioral differences”; the “differences between experimental groups and saline/DMSO control mice (summary)” value is on record as “no significant differences were observed”. Further, in data set [1] (IP single dose 3 mg/kg), the blood insulin levels result is recorded as “no statistically significant differences”. Further, in data set [1] (setting [4]), the blood insulin levels entry is listed as “no statistically significant differences”. Further, in data set [2] (IP, 24 h after injection), the “alanine transaminase (ALT)” value was “lower concentrations of alanine transaminase”, the albumin result is listed as “no statistically significant differences” and the “aspartate transaminase (AST)” value was “no statistically significant differences”. Also, in data set [2] (setting [5]), the “alanine transaminase (ALT)” value was “no statistically significant differences”, the albumin result is reported as “no statistically significant differences” and the “aspartate transaminase (AST)” value is “no statistically significant differences”. Further, in data set [3], the total cholesterol levels entry is on record as “No effect on total cholesterol levels” and the blood triglyceride levels result is “did not exhibit a statistically-significant reduction”.
